Key:
[1] = biological target: T1, E3 ubiquitin-protein ligase XIAP (Homo sapiens, UniProt P98170); assay: Binding affinity to XIAP-BIR3 domain (241 to 356 residues) (unknown origin) by fluorescence polarization-based competition assay
Caspase-9 = biological target: T2, Caspase-9 (Homo sapiens, UniProt P55211); assay: Inhibition of N-terminal CARD domain of caspase 9 (unknown origin)
T2 sequence (P55211 whole entry): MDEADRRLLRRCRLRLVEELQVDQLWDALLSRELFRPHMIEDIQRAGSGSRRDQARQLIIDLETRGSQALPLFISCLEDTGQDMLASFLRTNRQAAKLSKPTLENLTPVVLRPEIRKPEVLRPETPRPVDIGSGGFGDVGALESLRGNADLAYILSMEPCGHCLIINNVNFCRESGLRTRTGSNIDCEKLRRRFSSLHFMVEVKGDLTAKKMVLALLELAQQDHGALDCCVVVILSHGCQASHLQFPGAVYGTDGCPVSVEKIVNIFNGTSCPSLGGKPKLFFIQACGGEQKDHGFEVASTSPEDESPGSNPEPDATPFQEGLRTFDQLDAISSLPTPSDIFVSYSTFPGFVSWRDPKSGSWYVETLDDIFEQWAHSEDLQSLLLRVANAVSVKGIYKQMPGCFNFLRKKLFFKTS

MDA-MB-231 [2] = assay: Cytotoxicity against human MDA-MB-231 cells assessed as reduction in cell viability
MDA-MB-231 [3] = assay: Growth inhibition of human MDA-MB-231 cells; format: functional
[4] = biological target: T3, Baculoviral IAP repeat-containing protein 2 (Homo sapiens, UniProt Q13490); assay: Binding affinity to cIAP1-BIR3 domain (unknown origin)
[5] = biological target: T3, Baculoviral IAP repeat-containing protein 2; assay: Induction of cIAP1 (unknown origin) degradation
HL-60 = assay: Cytotoxicity against human HL60 cells assessed as reduction in cell viability; format: functional, cell-based
[6] = biological target: T1, E3 ubiquitin-protein ligase XIAP; assay: Binding affinity to XIAP-BIR2/BIR3 domain (unknown origin)
[7] = biological target: Baculoviral IAP repeat-containing protein 3 (Homo sapiens, UniProt Q13489); assay: Binding affinity to cIAP2-BIR3 domain (unknown origin)
[8] = biological target: T1, E3 ubiquitin-protein ligase XIAP; assay: Binding affinity to XIAP-BIR2 domain (unknown origin) by fluorescence polarization-based competition assay

T3 sequence (Q13490 whole entry, the tested form may be a part): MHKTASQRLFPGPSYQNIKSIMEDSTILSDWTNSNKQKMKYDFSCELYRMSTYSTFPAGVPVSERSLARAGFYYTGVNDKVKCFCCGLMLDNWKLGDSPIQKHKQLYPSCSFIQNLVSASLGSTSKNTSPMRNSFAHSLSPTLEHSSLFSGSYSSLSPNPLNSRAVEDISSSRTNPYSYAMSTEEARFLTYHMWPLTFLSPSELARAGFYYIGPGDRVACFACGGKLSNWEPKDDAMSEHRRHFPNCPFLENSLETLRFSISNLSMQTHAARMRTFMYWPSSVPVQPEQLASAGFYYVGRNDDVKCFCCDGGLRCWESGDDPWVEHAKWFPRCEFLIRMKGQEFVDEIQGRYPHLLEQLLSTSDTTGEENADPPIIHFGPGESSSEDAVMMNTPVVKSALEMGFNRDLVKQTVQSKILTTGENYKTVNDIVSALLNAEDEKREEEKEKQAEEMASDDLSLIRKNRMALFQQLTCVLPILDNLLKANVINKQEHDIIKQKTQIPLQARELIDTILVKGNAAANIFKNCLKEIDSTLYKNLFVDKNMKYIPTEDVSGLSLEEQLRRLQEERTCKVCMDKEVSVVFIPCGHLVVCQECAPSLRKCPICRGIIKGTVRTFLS
T1 sequence (P98170 whole entry, the tested form may be a part): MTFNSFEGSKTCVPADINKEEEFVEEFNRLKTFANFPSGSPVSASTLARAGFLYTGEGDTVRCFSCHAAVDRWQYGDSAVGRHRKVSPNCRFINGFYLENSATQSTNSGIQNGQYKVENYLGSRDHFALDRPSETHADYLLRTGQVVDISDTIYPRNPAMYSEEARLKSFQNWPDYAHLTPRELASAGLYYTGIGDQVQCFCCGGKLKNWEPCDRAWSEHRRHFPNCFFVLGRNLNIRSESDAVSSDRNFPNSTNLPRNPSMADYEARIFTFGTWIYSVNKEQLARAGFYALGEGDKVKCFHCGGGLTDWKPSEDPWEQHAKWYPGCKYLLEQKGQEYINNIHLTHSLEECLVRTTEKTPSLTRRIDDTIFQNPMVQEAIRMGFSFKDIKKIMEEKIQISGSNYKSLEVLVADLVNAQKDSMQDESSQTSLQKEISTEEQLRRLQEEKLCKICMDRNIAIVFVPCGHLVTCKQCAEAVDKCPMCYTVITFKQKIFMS
Baculoviral IAP repeat-containing protein 3, sequence (Q13489 whole entry, the tested form may be a part): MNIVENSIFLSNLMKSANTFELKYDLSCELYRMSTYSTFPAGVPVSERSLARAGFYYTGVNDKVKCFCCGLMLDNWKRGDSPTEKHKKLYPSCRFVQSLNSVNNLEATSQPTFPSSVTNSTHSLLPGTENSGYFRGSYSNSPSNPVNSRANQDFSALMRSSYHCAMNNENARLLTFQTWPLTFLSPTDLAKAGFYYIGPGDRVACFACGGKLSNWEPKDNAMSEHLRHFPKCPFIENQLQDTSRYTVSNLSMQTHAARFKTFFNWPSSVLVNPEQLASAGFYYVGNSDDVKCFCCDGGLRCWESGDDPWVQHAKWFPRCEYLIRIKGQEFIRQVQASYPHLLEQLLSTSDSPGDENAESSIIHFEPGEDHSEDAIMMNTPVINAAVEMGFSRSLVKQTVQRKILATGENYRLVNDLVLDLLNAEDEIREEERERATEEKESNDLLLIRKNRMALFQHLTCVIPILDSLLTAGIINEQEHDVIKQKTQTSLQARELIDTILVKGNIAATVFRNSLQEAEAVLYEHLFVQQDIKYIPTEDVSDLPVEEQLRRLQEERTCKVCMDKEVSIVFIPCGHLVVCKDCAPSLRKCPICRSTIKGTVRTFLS

Compound `CN[C@@H](C)C(=O)N[C@H](C(=O)N1CCC[C@H]1C(=O)N[C@H]1CCc2ccccc21)C(C)(C)C` has a Kd [1] of 29 nM.
In the case of `CN[C@@H](C)C(=O)N[C@H](C(=O)N1CCC[C@H]1C(=O)N[C@H]1CCCc2ccccc21)C(C)(C)C`, the EC50 (Caspase-9) is reported as 290 nM and the IC50 (MDA-MB-231 [2]) is reported as 68 nM.
`CN[C@@H](C)C(=O)N[C@H](C(=O)N1CCC[C@H]1C(=O)N[C@H]1c2ccccc2C[C@H]1OCC#CC#CCO[C@@H]1Cc2ccccc2[C@@H]1NC(=O)[C@@H]1CCCN1C(=O)[C@@H](NC(=O)[C@H](C)NC)C(C)(C)C)C(C)(C)C` was tested, and the GI50 (MDA-MB-231 [3]) was < 0.06 nM, the IC50 [4] was 15 nM and the EC50 [5] was 0.1 nM.
With `CN[C@@H](C)C(=O)N[C@@H](CNC(=O)c1ccc(S(=O)(=O)F)cc1)C(=O)N1CCC[C@@H]1c1cncc(Cc2ccc(F)cc2)n1` the IC50 [4] was > 200 nM.
`CN[C@@H](C)C(=O)N[C@H](C(=O)N1CCC[C@H]1C(=O)N[C@H]1CCCc2ccccc21)C1CCCCC1` was tested, and the EC50 (Caspase-9) was 310 nM and the IC50 (MDA-MB-231 [2]) was 13 nM.
For `CC[C@H](NC)C(=O)N[C@H](C(=O)N1C[C@H]2Cc3cc(Cl)ccc3N2C[C@H]1C(=O)N[C@H]1CCOc2ccccc21)C1CCCCC1`, the GI50 (MDA-MB-231 [3]) was 15 nM.
Compound `CN[C@@H](C)C(=O)N[C@H](C(=O)N1CC[C@@H](Oc2ccccc2)[C@H]1C(=O)N[C@H]1CCCc2ccccc21)C(C)(C)C` has an EC50 (Caspase-9) of 240 nM.
For `CCO[C@@H]1C[C@@H]2CN(C(=O)[C@@H](NC(=O)[C@H](C)NC)C3CCC(F)(F)CC3)[C@H](C(=O)N[C@H]3CCOc4ccccc43)CN2C1`, the GI50 (MDA-MB-231 [3]) was 1.8 nM and the Kd [4] was 1.3 nM.
In the case of `CN[C@@H](C)C(=O)NC1CCCC[C@H]2CC[C@@H](C(=O)N[C@@H](c3ccccc3)c3cn(CCCCc4ccc(CCCCn5cc([C@@H](NC(=O)[C@@H]6CC[C@@H]7CCCC[C@H](NC(=O)[C@H](C)NC)C(=O)N76)c6ccccc6)nn5)cc4)nn3)N2C1=O` (stereo not given in full), the IC50 (HL-60) is reported as 1 nM.
With `CN[C@@H](C)C(=O)N[C@H]1CCCC[C@H]2CC[C@@H](C(=O)N[C@@H](c3ccccc3)c3cn(Cc4ccccc4)nn3)N2C1=O` the IC50 [6] was 376 nM and the IC50 (HL-60) was 2000 nM.
Work on `CN[C@@H](C)C(=O)N[C@H]1CCCC[C@H]2CC[C@@H](C(=O)NC(c3ccccc3)c3ccccc3)N2C1=O` yielded an IC50 (HL-60) of 1400 nM.
`CC[C@H](NC(=O)[C@H](C)NC)C(=O)N1C[C@@H](O)C[C@H]1Cc1c(-c2[nH]c3cc(F)ccc3c2C[C@@H]2C[C@H](O)CN2C(=O)[C@H](CC)NC(=O)[C@H](C)NC)[nH]c2cc(F)ccc12` [BIRINAPANT] gave a Kd [7] of 36 nM.
In the case of `CN[C@@H](C)C(=O)N[C@H](C(=O)N1CCC[C@H]1C(=O)Nc1snnc1-c1ccccc1)C1CCCCC1` [GDC-0152], the Kd [1] is reported as 28 nM and the Kd [8] is reported as 112 nM.

Source: ChEMBL document CHEMBL4350953, “Inhibitor of Apoptosis Protein (IAP) Antagonists in Anticancer Agent Discovery: Current Status and Perspectives” (J Med Chem, 2019)
